One experiment deals with 4T1.2 cell line. As to the kind of experiment: 2D cell line viability assay (cell confluence). The format is cell-based, murine. The note with it: Mus musculus, 4T1.2, 96 h. An excerpt: (§1) FIGS. 4A-4E illustrate the effects of Compound 1 on the Potency of Paclitaxel in a 2D Cell Line Viability Assay. […] Data points indicate mean and Standard Deviation of 2 biological replicates. Graphs are representative of at least 2 independent experiments. […] Abbreviations: DMSO, dimethylsulfoxide.

A further experiment relates to EMT6 cell line. Briefly: 2D cell line viability assay (cell confluence). The format is cell-based, murine. The note with it: Mus musculus, EMT6, 96 h, 4 days.
Text: as §1

Another experiment concerns A549 cell line. Briefly: 2D cell line viability assay (cell confluence). The experiment is classed as cell-based. The note with it: Homo sapiens, A549, 96 h, 4 days.
Text: as §1

The test system of the next experiment is HT29 cell line. Briefly: 2D cell line viability assay (cell confluence). The experiment is classed as cell-based. The note with it: Homo sapiens, HT-29, 96 h, 4 days.
Text: as §1

The subject of another experiment is NCI-H460 cell line. As to the kind of experiment: 2D cell line viability assay (cell confluence). The experiment is classed as cell-based. The note with it: Homo sapiens, NCI-H460, 96 h, 4 days.
Text: as §1

Experiment [1] has as its system LXFE2478 organoid, NSCLC (squamous subtype). Briefly: 3D clonogenic assay in patient derived organoids. The experiment is classed as cell-based, human. The note with it: for Combination activity 5 μM Compound 1 (cAUC % reduction): chemotherapy dose titration + 5 μM Compound 1 vs chemotherapy alone; for Combination activity 20 μM Compound 1 (cAUC % reduction): chemotherapy dose titration + 20 μM Compound 1 vs chemotherapy alone. As to the method: (§2) Five tumor cell lines (4T1.2, A549, EMT6, NCI-H460, and HT29) were treated with a range of paclitaxel or 5-FU concentrations in the presence of dimethlylsulfoxide (DMSO), 5 μM Compound 1, or 20 μM Compound 1. Cells were imaged 4 days after treatment and percent confluence was assessed by image quantification. EC50 values for cell confluence were used to assess chemotherapy potency. Eleven patient-derived tumor organoids (MAXFTN449, MAXFTN2990, PAXF1657, PAXF2131, CXF1256, CXF2129, CXF2061, LXFE2478, LXFE690, LXFA677, LXFA644) were seeded in a 3D matrix and treated with a range of paclitaxel, 5-FU, SN38, Gemcitabine, oxaliplatin, and carboplatin concentrations in the presence of DMSO, 5 μM Compound 1, or 20 μM Compound 1. After 8 to 13 days in culture, colonies were stained, imaged, and counted. A dose response curve was generated for chemotherapy alone or chemotherapy in combination with 5 or 20 μM Compound 1. Combination activity was defined as a percentage of the area under the chemotherapy dose response curve (cAUC) for Compound 1 combination groups compared to the cAUC of chemotherapy alone.
(§3) For combination experiments, working stock solutions of all compounds were prepared in DMSO at concentrations of 660-fold the highest test concentration used and stored at −20° C. Platin compounds were prepared freshly on each treatment day. On each day of an experiment, an aliquot of the working stock solutions was used and stored at room temperature prior to and during treatment. First, 1:2 dilutions of 660-fold concentrated working stocks were prepared in DMSO (in case of monotherapy controls), or equal amounts of the compound working stocks were mixed (in case of drug combinations). Then, different dilutions of these 330-fold concentrated solutions were prepared in DMSO to give an 8×2 matrix combination layout with conditions. The DMSO dilutions were further diluted […] into cell culture medium (IMDM, supplemented with 20% (v/v) fetal bovine serum, and 50 μg/mL gentamicin) in an intermediate dilution plate. Finally, 10 μL taken from the intermediate dilution plate were transferred to 140 μL of cells and medium per well of the final assay plate. Thus, the DMSO dilutions used for the mono- and the combination-treatment were diluted 1:660, and the DMSO concentration in the assay was […].
(§4) Tumors were passaged as subcutaneous xenografts in NMRI nu/nu mice. At a tumor volume of 400 to 1000 mm^3, tumor-bearing mice were euthanized, and tumors were collected under sterile conditions without delay. Tumors were mechanically disaggregated and subsequently incubated with an enzyme cocktail consisting of collagenase type IV (41 U/mL), DNase I (125 U/mL), hyaluronidase type III (100 U/mL), and dispase II (1 U/mL) in RPMI 1640 medium at 37° C. for 60 to 120 minutes. Cells were passed through sieves of 100 μm and 40 μm mesh size, and washed with RPMI 1640 medium. The percentage of viable cells was determined in a Neubauer-hemocytometer using trypan blue exclusion. Aliquots of the cells were frozen down and stored in liquid nitrogen vapor phase. On each day of an experiment, a frozen aliquot of tumor cells was thawed and used for preparation of assay plates.
(§5) The clonogenic assay was carried out in a 96 well plate format using ultra low attachment plates. For each test, plates were prepared as follows: each test well contained a layer of semi-solid medium with tumor cells (50 μL), and a second layer of medium supernatant with or without test compound (100 μL). The cell layer consisted of […] to 12.5×10^3 tumor cells per well, which were seeded in 50 μL/well cell culture medium (IMDM, supplemented with 20% (v/v) fetal bovine serum, 50 μg/mL gentamicin, and 0.4% (w/v) agar). After 24 hours, the soft-agar layer was covered with 90 μL of the same culture medium without agar, and 10 μL of control medium or test compound after serial dilution in DMSO for the duration of the experiment (continuous exposure, 100 μL drug overlay).

The subject of experiment [2] is LXFE690 organoid, NSCLC (squamous subtype). As to the kind of experiment: 3D clonogenic assay in patient derived organoids. The format is cell-based, human. The note with it: for Combination activity 5 μM Compound 1 (cAUC % reduction): chemotherapy dose titration + 5 μM Compound 1 vs chemotherapy alone; for Combination activity 20 μM Compound 1 (cAUC % reduction): chemotherapy dose titration + 20 μM Compound 1 vs chemotherapy alone. As to the method: as §2, §3, §4, §5

For experiment [3], the system named is MAXFTN2990 organoid, breast cancer (triple negative). Briefly: 3D clonogenic assay in patient derived organoids. The format is cell-based, human. The note with it: for Combination activity 20 μM Compound 1 (cAUC % reduction): chemotherapy dose titration + 20 μM Compound 1 vs chemotherapy alone. As to the method:
as §2, §3, §4, §5

The test system of experiment [4] is MAXFTN449 organoid, breast cancer (triple negative). As to the kind of experiment: 3D clonogenic assay in patient derived organoids. The experiment is classed as cell-based, human. The note with it: for Combination activity 20 μM Compound 1 (cAUC % reduction): chemotherapy dose titration + 20 μM Compound 1 vs chemotherapy alone. The procedure: as §2, §3, §4, §5

Experiment [5] deals with PAXF1657 organoid, pancreatic cancer. As to the kind of experiment: 3D clonogenic assay in patient derived organoids. The format is cell-based, human. Conditions: for Combination activity 20 μM Compound 1 (cAUC % reduction): chemotherapy dose titration + 20 μM Compound 1 vs chemotherapy alone. As to the method:
as §2, §3, §4, §5

The test system of experiment [6] is PAXF2131 organoid, Pancreatic cancer. Briefly: 3D clonogenic assay in patient derived organoids. The note with it: for Combination activity 20 μM Compound 1 (cAUC % reduction): chemotherapy dose titration + 20 μM Compound 1 vs chemotherapy alone. The experiment is classed as cell-based, human. As to the method:
as §2, §3, §4, §5

The subject of experiment [7] is LXFA644 organoid, NSCLC (adenocarcinoma subtype). Briefly: 3D clonogenic assay in patient derived organoids. The experiment is classed as cell-based, human. The note with it: for Combination activity 5 μM Compound 1 (cAUC % reduction): chemotherapy dose titration + 5 μM Compound 1 vs chemotherapy alone; for Combination activity 20 μM Compound 1 (cAUC % reduction): chemotherapy dose titration + 20 μM Compound 1 vs chemotherapy alone. The procedure: as §2, §3, §4, §5

Experiment [8] relates to LXFA677 organoid, NSCLC (adenocarcinoma subtype). Briefly: 3D clonogenic assay in patient derived organoids. The experiment is classed as cell-based, human. The note with it: for Combination activity 5 μM Compound 1 (cAUC % reduction): chemotherapy dose titration + 5 μM Compound 1 vs chemotherapy alone; for Combination activity 20 μM Compound 1 (cAUC % reduction): chemotherapy dose titration + 20 μM Compound 1 vs chemotherapy alone. The procedure: as §2, §3, §4, §5

Setting [9] is: in the presence of 5 μM Compound 1.
The mark [10] stands for this setting: in the presence of 20 μM Compound 1.
Where [11] appears, read: chemotherapy dose titration + 5 μM Compound 1 vs chemotherapy alone.

By EC50 is commonly meant the concentration needed to bring the measured effect to its halfway point. On to `CC(=O)O[C@H]1C(=O)[C@@]2(C)[C@H]([C@H](OC(=O)c3ccccc3)[C@]3(O)C[C@H](OC(=O)[C@H](O)[C@@H](NC(=O)c4ccccc4)c4ccccc4)C(C)=C1C3(C)C)[C@]1(OC(C)=O)CO[C@@H]1C[C@@H]2O` (relative stereo) [Paclitaxel, (1S,2S,3R,4S,7R,9S,10S,12R,15S)-4,12-diacetoxy-15-{[(2R,3S)-3-(benzoylamino)-2-hydroxy-3-phenylpropanoyl]oxy}-1,9-dihydroxy-10,14,17,17-tetramethyl-11-oxo-6-oxatetracyclo[11.3.1.0˜3,10˜0.0˜4,7˜]heptadec-13-en-2-yl rel-benzoate], for which the EC50 in the experiment with 4T1.2 cell line (4 days after treatment, in the absence of Compound 1) worked out at 48 nM; with 4T1.2 cell line (4 days, in the presence of 5 μM Compound 1), 16 nM; in the experiment with 4T1.2 cell line (4 days, in the presence of 20 μM Compound 1), 3.4 nM; in the experiment on EMT6 cell line (in the absence of Compound 1) it was 19 nM; with EMT6 cell line (setting [9]), 5.5 nM; in the experiment with EMT6 cell line (setting [10]) it was 1.9 nM. The EC50 with A549 cell line (in the absence of Compound 1) was found to be 1.6 nM; in the experiment on A549 cell line (setting [9]), 1.6 nM; in the experiment on A549 cell line (setting [10]) it was 1 nM; with HT29 cell line (in the absence of Compound 1), 1.8 nM; in the experiment on HT29 cell line (setting [9]), 1.9 nM; in the experiment with HT29 cell line (setting [10]), 1.8 nM. Further, the EC50 in the experiment with NCI-H460 cell line (in the absence of Compound 1) worked out at 6.5 nM; in the experiment on NCI-H460 cell line (setting [9]), 2.9 nM; with NCI-H460 cell line (setting [10]), 2.3 nM. Further, the “Combination activity 5 μM Compound 1 (cAUC % reduction)” value in experiment [1] was determined as 46%; in experiment [2], 87%; in experiment [3] (setting [11]), 63%; in experiment [4] (setting [11]) it was 57%; in experiment [5] (setting [11]) it was 50%; in [6] (setting [11]) it was 58%. Further, the “Combination activity 20 μM Compound 1 (cAUC % reduction)” value was 45% in [1]; 45% in [1] (listed as paclitaxel); 94% in [2]; 94% in experiment [2] (listed as paclitaxel); 77% in experiment [3]; 77% in experiment [3] (listed as paclitaxel). The “Combination activity 20 μM Compound 1 (cAUC % reduction)” value in [4] is listed as 42%; in [4] (listed as paclitaxel), 42%; in experiment [5] it was 64%; in [5] (listed as paclitaxel) it was 64%; in experiment [6] it was 71%; in experiment [6] (listed as paclitaxel), 71%.

Turning to `N.N.O=C([O-])C1(C(=O)[O-])CCC1.[Pt+2]` [Carboplatin, carboplatin], the “Combination activity 5 μM Compound 1 (cAUC % reduction)” value in [7] amounted to 5%; in experiment [7] (listed as carboplatin), 50%; in experiment [8] it was 7%; in [1], 27%; in experiment [2], 73%. In addition, the “Combination activity 20 μM Compound 1 (cAUC % reduction)” value in experiment [7] was determined as 19%; in experiment [8], 14%; in [1], 3%; in experiment [2], 80%.

Regarding `Nc1ccn([C@@H]2O[C@H](CO)[C@@H](O)C2(F)F)c(=O)n1` [Gemcitabine, gemcitabine], the “Combination activity 5 μM Compound 1 (cAUC % reduction)” value in experiment [7] is recorded as 3%; in experiment [8], 7%; in experiment [1] it was 41%; in [1] (listed as gemcitabine) it was 41%; in [2], 59%. In addition, the “Combination activity 20 μM Compound 1 (cAUC % reduction)” value was found to be 20% in experiment [7], 15% in [8], 30% in experiment [1] and 61% in experiment [2].
